Data published in patent US20250099554A1, “COMPOSITIONS AND METHODS OF FAS INHIBITION” (ONL Therapeutics, Inc., priority 2018, published 2025).
“Also recorded” adds a separate entry of the source. Where a SMILES comes first, the peptide text is derived from it.

Tests used:
[1] = system: retinal microglia/macrophages; assay: Iba1 staining of retinal whole mounts, microglia/macrophage activation; assay type: in vivo, C57BL/6J mice; details: 28 days post microbead injection, treated at Day 0
Experimental: FIG. 12 depicts representative confocal images of retinal whole mounts at 28 days post microbead injection from mice treated with ONL1204 (or vehicle) at Day 0. Retinal whole mounts were stained with Iba1 (microglia/macrophage). Yellow arrows indicate homeostatic microglia with dendritic morphology; blue arrows indicate activated microglia and/or infiltrating macrophages with amoeboid morphology. Morphometric analysis was performed on Iba1+cells in the ganglion cell layer (60 cells per retina) and the longest process length measured from the edge of the cell body (in […]) was used to quantitate microglia activation.

[2] = system: neural retina gene expression following elevated IOP; assay: qPCR of neural retina after microbead-induced elevation of IOP (Example 1); assay type: in vivo, mice
Source text: Quantitative PCR (qPCR) was used on neural retina samples isolated at 28 days post microbead or saline injection from mice treated with Compound 1 (or vehicle) on Day 0.
Data shown are mRNA expression fold change over saline+vehicle control+/−SEM. N=6/group, **P<0.01, ***P<0.001, ****P<0.0001.
A 96-well was expanded to a 384-well qPCR system to allow for an increase in the number of genes to be examined in one run.
For this qPCR analysis, saline+vehicle was used as the control. DDCt=experimental DCt−mean DCt of saline+vehicle, and Expression Fold Change=2^−DDCt.

[3] = system: retinal ganglion cells (RGCs) and axons; assay: RGC (Brn3a) and axon (PPD) density in microbead-induced mouse model of elevated IOP; assay type: in vivo, C57BL/6J mice
Experimental: (§1) C57BL/6J mice were used in this experiment in which 2 μL of sterile polystyrene microbeads (15 μm; 7.2×10^6 bead/mL) or saline were injected into the anterior chamber on Day 0 followed by 1 μL of 0.5 mg/mL or 2 mg/mL Compound 1 or vehicle by intravitreal (IVT) injection on Day 0 or 7 days after the microbead/saline injections. IOP was followed every 3 days for 4 weeks using a rebound tonometer (TonoLab). At 4 weeks post anterior chamber injection, retinal flatmounts were prepared and stained for Brn3a, an RGC-specific protein, to visualize RGCs. Sixteen non-overlapping images were taken, at 60× with 4-5 images within each quadrant and the images were used to calculate the RGC density. For axon analysis, optic nerves were stained with p-phenylenediamine (PPD) to visualize myelinated axons and 10 non-overlapping photomicrographs were taken at 100× magnification covering the entire area of the optic nerve cross-section, and these images were used to calculate the axon density. Quantitative PCR (qPCR) was also performed on retinal tissue isolated from the mice at 28 days post microbead/saline injections. To assess production of mature IL-1β (p17), protein lysates (20 μg per sample) were prepared from posterior eye cups (neural retina, choroid, and sclera) at 28 days post microbead/saline injections and analyzed by Western blot and densitometry. All data are presented as mean±SEM. One-way ANOVA and the Sidak multiple-comparison test were used for analysis of RGCs and axons. A p value<0.05 was considered significant.

[4] = IOP by rebound tonometer in microbead-induced mouse model of elevated IOP; assay type: in vivo, C57BL/6J mice
Experimental: as §1, with “One-way ANOVA and the Sidak multiple-comparison test were used for analysis of RGCs and axons. A p value<0.05 was considered significant.” left out

[5] = system: neural retina inflammatory gene expression; assay: qPCR of neural retina at 28 days post microbead injection (Example 2); assay type: in vivo, C57BL/6J mice; details: treated on Day 0
Experimental: as §1
(§2) Quantitative PCR was performed on neural retina isolated at 28 days post microbead injection from mice treated with ONL1204 (or vehicle) on Day 0. Data shown are mRNA expression fold change over saline controls+/−SEM. N=4/group, *P<0.05, **P<0.01. For analysis of mature IL-1β (p17) production, protein lysates ([…] per sample) were prepared from posterior eye cups (neural retina, choroid, and sclera) and analyzed by Western blot.

mature IL-1β (p17) = assay: Western blot and densitometry of mature IL-1β (p17) in posterior eye cups; assay type: in vivo, C57BL/6J mice
Experimental: as §1, with “For axon analysis, optic nerves were stained with p-phenylenediamine (PPD) to visualize myelinated axons and 10 non-overlapping photomicrographs were taken at 100× magnification covering the entire area of the optic nerve cross-section, and these images were used to calculate the axon density.” left out, “All data are presented as mean±SEM. One-way ANOVA and the Sidak multiple-comparison test were used for analysis of RGCs and axons. A p value<0.05 was considered significant.” left out
as §2, with “Data shown are mRNA expression fold change over saline controls+/−SEM. N=4/group, *P<0.05, **P<0.01.” left out

[6] = 28 days post microbead injection, treated Day 0
[7] = 28 days post microbead injection, treated Day 0, vs microbeads and vehicle
[8] = 0.5 mg/ml, 1 μL IVT at Day 0, 4 weeks
[9] = 2.0 mg/mL IVT at Day 7 post-microbead injection, compared to saline plus vehicle controls
[10] = 2 mg/ml, 1 μL IVT at Day 0, 4 weeks

## CC[C@H](C)[C@H](NC(=O)[C@H](Cc1ccc(O)cc1)NC(=O)[C@H](CC(N)=O)NC(=O)[C@@H](NC(=O)[C@H](C)NC(=O)CNC(=O)[C@H](CC(C)C)NC(=O)[C@H](Cc1ccc(O)cc1)NC(=O)[C@@H](NC(=O)[C@H](Cc1cnc[nH]1)NC(=O)[C@@H](N)Cc1cnc[nH]1)[C@@H](C)CC)C(C)C)C(=O)N[C@@H](Cc1ccc(O)cc1)C(N)=O [Compound 1, His-His-Ile-Tyr-Leu-Gly-Ala-Val-Asn-Tyr-Ile-Tyr-amide] (H-HHIYLGAVNYIY-NH2)
[1]
  microglial/macrophage activation: inhibits; also recorded: reduced number of activated microglia/macrophages
[2]; 28 day time point
  ASC gene expression: Limited or no change
  Bax gene expression: unaffected
  FADD gene expression: unaffected
  FasL gene expression: unaffected
  FasR gene expression: unaffected
  NLRP2 gene expression: Limited or no change
  caspase 3 gene expression: unaffected
  complement C4 gene expression: Limited or no change
[2]; [6]
  C1q gene expression: significantly reduced
  Caspase 8 gene expression: significantly reduced
  Complement C3 gene expression: significantly reduced
  NLRP3 gene expression: significantly reduced
  TLR4 gene expression: significantly reduced
[2]; 28 days post microbead injection, treated Day 0, decreased in microbead controls
  cFLIP gene expression (pro-survival): restored to near-baseline
[2]; [7]
  GFAP gene expression: significantly reduced
  IL-1β gene expression: significantly reduced
  IL-6 gene expression: significantly reduced
  IL-18 gene expression: significantly reduced
  IP-10 gene expression: significantly reduced
  MCP-1 gene expression: significantly reduced
  MIP1α gene expression: significantly reduced
  MIP2 gene expression: significantly reduced
  MIP-1β gene expression: significantly reduced
  TNFα gene expression: significantly reduced
[3]; [8]
  axon density: statistically significant preservation
  retinal ganglion cell density: statistically significant preservation
[3]; [9]
  axon density: nearly total preservation
  retinal ganglion cell density: nearly total preservation
[3]; [10]
  axon density: statistically significant preservation
  retinal ganglion cell density: statistically significant preservation
[4]; IVT injection on Day 7 post microbeads
  effect on IOP: did not affect
[4]; IVT injection on the same day as the microbeads
  effect on IOP: did not affect
[5]
  CCL2/MCP-1 gene expression: substantially inhibited
  CCL3/MIP-1α gene expression: substantially inhibited
  TNF-α gene expression: substantially inhibited
Mature IL-1β (p17); 28 days post microbead injection
  production of mature IL-1β: reduced
Mature IL-1β (p17); Western blot, following microbead injection
  reduction in production of mature IL-1β by densitometry, compared to vehicle: two-fold
